Experimental data as given in patent publication US5352704A, “Guanidinobenzene derivatives” (priority 1989, dated 1994).

Tests used:
[1] = test system: influenza virus A/Udron/72 (H3N2); assay type: in vivo, mole hamster; settings: 10.0 mg/ml, 50 μl intranasal at 6, 11 and 24 hours after infection, 28 hours from infection, n = 5
[2] = test system: human influenza virus A/WSN; test: Inhibitory action on plaque formation by human influenza virus; assay type: cell-based, human influenza virus A/WSN (in MDCK dog kidney cells); settings: unidentified influenza virus, MDCK, 72 h, read-out: Inhibition ratio (%) of plaque formation
[3] = related art (Virology, Raven Press, pp 323-348, 1985); cited from earlier work

| Compound | % Inhibition (virus in lung) ([1]; **P < 0.01, tTest) | PFU/lung ([1]; control 4.8 ± 2.2 × 10^5) | inhibition at 10 µg/mL [2] | inhibition at 20 µg/mL [2] | inhibition at 50 µg/mL [2] | inhibition at 12.5 µg/mL [2] | inhibition at 25 µg/mL [2] | efficacy on frequent use [3] | side effects [3] |
| --- | --- | --- | --- | --- | --- | --- | --- | --- | --- |
| N=C(N)Nc1ccc(C(=O)Nc2ccc3cc(C(=N)N)ccc3c2)cc1 [Compound B, 4-guanidinobenzoic acid 6-amidino-2-naphthylamide.2 methanesulfonate] | 99.0% | 5.0 ± 10.0 × 10^3 PFU/lung | 31.4% | 67.6% | 82.4% |  |  |  |  |
| N=C(N)Nc1ccc(C(=O)Nc2ccc(C(=N)N)cc2)cc1 [Compound A, 4-guanidinobenzoic acid 4-amidinobenzamide.2 methanesulfonate] |  |  |  |  | 80.8% | 2.9% | 51% |  |  |
| NC12CC3CC(CC(C3)C1)C2 [amantadine] |  |  |  |  |  |  |  | the higher the frequency of use, the lower becomes efficacy | teratogenicity |
